# Laboratory results: ChEMBL document CHEMBL5465560, “Selectivity Literature for EUbOPEN Chemogenomic Library” (2024)
# Tests used:
# [1] = target: Wee1-like protein kinase (Homo sapiens) (UniProt P30291); assay: Selectivity interaction (KinomeScan (DiscoverX)) EUB0000229b WEE1; settings: at 10 µM
# [2] = target: T1, Dual serine/threonine and tyrosine protein kinase (Homo sapiens) (UniProt Q6XUX3); assay: Selectivity interaction (ProQinase) EUB0000171b DSTYK
# T1 sequence (whole entry): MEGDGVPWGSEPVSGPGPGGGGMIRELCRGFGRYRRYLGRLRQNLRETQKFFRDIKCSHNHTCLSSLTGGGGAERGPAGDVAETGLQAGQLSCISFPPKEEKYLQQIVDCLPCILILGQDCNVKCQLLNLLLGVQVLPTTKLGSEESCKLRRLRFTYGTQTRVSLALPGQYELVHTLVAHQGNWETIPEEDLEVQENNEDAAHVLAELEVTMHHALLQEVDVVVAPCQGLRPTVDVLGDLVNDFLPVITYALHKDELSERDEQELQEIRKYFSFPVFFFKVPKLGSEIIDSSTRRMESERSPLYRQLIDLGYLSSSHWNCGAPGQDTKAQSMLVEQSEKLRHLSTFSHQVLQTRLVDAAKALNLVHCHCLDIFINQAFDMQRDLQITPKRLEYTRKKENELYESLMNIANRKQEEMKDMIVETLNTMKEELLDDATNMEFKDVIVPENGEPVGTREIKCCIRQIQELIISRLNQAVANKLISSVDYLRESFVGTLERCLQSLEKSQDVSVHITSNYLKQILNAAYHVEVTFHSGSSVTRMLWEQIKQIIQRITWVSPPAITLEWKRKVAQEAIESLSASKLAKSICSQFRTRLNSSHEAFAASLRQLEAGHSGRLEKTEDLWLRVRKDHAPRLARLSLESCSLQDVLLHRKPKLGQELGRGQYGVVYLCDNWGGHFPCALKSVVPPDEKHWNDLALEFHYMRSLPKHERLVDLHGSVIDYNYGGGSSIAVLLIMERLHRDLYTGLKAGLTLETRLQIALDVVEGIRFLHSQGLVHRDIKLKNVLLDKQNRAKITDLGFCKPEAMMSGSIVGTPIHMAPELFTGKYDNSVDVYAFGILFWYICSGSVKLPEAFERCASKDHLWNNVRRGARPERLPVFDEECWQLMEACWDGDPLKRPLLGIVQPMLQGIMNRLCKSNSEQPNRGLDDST
# [3] = target: T2, Interleukin-1 receptor-associated kinase 3 (Homo sapiens) (UniProt Q9Y616); assay: Selectivity interaction (KinomeScan (DiscoverX)) EUB0001079a IRAK3; settings: at 1 µM
# T2 sequence (whole entry): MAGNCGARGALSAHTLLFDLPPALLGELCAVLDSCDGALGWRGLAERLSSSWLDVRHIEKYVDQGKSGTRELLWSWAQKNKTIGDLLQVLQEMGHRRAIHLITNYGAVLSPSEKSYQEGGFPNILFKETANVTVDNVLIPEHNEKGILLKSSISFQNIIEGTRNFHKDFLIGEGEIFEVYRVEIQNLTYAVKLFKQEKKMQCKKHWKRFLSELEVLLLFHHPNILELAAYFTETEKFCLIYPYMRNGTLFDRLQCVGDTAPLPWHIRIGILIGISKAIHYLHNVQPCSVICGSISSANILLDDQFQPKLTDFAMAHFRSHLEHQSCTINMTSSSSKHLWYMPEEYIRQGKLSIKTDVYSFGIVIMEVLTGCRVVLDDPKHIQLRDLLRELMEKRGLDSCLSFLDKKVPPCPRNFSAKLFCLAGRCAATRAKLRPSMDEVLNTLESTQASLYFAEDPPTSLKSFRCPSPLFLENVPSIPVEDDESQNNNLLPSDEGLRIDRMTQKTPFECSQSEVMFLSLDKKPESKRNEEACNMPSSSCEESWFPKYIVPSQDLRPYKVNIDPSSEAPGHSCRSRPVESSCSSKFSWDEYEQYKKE
# [4] = target: Serine/threonine-protein kinase SMG1 (Homo sapiens) (UniProt Q96Q15); assay: Selectivity interaction (Kinase panel (KiNativ target engagement assay in Jurkat cells)) EUB0001635a SMG1; type: cell-based; settings: Selectivity number of off-targets 0.0, Selectivity number of targets 233.0, Source Knowledge https://www.sciencedirect.com/science/article/pii/S2451945619300674?via%3Dihub, at 1 µM
# [5] = target: Serine/threonine-protein kinase PLK3 (Homo sapiens, UniProt Q9H4B4); assay: Selectivity interaction (Millipore kinase profiler) EUB0000124b PLK3; settings: at 10 µM
# [6] = target: Mitogen-activated protein kinase 1 (Homo sapiens, UniProt P28482); assay: Selectivity interaction (Kinase panel (Z-LYTE Assay)) EUB0001632a MAPK1; settings: at 10 µM
# [7] = target: Glutamate receptor ionotropic, NMDA 1 (Homo sapiens) (UniProt Q05586); assay: Selectivity interaction (Panel of non-epigenetic targets (kinases, GPCRs, ion channels, and transporters, Eurofins) ) EUB0000271b GRIN1; settings: at 1 µM
# [8] = system: Proto-oncogene tyrosine-protein kinase receptor Ret (Homo sapiens), P07949 [M918T]; assay: (§1) Selectivity interaction (KinomeScan (DiscoverX)) EUB0000595a RET; settings: at 10 µM
# [9] = target: Proto-oncogene tyrosine-protein kinase receptor Ret (Homo sapiens, UniProt P07949); assay: as §1; settings: at 10 µM
# [10] = system: Proto-oncogene tyrosine-protein kinase receptor Ret (Homo sapiens), P07949 [V804L]; assay: as §1; settings: at 10 µM
# [11] = target: Myosin light chain kinase 2, skeletal/cardiac muscle (Homo sapiens) (UniProt Q9H1R3); assay: Selectivity interaction (KinomeScan (DiscoverX)) EUB0000618a MYLK2; settings: at 10 µM
# Proto-oncogene tyrosine-protein kinase receptor Ret, sequence (P07949 whole entry): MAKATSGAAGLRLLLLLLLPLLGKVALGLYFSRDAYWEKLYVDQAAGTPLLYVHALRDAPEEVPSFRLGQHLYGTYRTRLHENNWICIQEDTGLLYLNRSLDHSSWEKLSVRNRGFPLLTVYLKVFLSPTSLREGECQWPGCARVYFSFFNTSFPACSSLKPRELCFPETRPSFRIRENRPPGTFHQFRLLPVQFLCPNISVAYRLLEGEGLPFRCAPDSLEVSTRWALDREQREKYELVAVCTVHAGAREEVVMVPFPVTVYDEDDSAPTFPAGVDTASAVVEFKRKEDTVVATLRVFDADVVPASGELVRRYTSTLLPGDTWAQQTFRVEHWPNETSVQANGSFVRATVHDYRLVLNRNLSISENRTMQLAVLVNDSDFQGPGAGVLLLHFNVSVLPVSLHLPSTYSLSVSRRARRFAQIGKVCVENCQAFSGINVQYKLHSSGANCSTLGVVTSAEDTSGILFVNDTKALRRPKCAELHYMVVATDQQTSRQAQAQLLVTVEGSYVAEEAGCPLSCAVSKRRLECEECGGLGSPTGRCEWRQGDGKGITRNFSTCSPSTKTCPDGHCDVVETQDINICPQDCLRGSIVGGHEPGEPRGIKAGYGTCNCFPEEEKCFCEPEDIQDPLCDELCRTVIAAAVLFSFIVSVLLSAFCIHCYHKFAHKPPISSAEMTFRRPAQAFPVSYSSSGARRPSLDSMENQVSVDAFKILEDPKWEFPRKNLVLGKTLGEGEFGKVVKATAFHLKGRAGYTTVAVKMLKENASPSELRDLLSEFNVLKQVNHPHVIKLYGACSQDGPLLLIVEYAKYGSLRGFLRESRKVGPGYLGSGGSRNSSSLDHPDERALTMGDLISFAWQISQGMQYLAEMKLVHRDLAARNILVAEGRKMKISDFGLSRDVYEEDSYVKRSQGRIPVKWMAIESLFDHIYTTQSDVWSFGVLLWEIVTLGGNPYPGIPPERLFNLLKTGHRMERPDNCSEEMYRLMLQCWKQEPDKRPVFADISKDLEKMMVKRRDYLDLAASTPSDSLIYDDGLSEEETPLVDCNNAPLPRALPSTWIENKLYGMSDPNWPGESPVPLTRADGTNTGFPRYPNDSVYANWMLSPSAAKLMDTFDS
# Mitogen-activated protein kinase 1, sequence (P28482 whole entry): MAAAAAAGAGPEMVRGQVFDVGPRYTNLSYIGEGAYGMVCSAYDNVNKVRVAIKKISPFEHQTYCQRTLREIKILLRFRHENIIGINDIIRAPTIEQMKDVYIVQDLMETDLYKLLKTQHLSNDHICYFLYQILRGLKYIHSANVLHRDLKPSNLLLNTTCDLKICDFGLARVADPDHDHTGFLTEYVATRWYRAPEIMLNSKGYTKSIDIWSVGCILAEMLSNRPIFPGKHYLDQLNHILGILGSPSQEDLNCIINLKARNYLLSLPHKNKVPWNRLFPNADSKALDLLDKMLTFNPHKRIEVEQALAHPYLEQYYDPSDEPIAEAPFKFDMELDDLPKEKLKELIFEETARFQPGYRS
# Serine/threonine-protein kinase SMG1 (Homo sapiens), sequence (Q96Q15 whole entry): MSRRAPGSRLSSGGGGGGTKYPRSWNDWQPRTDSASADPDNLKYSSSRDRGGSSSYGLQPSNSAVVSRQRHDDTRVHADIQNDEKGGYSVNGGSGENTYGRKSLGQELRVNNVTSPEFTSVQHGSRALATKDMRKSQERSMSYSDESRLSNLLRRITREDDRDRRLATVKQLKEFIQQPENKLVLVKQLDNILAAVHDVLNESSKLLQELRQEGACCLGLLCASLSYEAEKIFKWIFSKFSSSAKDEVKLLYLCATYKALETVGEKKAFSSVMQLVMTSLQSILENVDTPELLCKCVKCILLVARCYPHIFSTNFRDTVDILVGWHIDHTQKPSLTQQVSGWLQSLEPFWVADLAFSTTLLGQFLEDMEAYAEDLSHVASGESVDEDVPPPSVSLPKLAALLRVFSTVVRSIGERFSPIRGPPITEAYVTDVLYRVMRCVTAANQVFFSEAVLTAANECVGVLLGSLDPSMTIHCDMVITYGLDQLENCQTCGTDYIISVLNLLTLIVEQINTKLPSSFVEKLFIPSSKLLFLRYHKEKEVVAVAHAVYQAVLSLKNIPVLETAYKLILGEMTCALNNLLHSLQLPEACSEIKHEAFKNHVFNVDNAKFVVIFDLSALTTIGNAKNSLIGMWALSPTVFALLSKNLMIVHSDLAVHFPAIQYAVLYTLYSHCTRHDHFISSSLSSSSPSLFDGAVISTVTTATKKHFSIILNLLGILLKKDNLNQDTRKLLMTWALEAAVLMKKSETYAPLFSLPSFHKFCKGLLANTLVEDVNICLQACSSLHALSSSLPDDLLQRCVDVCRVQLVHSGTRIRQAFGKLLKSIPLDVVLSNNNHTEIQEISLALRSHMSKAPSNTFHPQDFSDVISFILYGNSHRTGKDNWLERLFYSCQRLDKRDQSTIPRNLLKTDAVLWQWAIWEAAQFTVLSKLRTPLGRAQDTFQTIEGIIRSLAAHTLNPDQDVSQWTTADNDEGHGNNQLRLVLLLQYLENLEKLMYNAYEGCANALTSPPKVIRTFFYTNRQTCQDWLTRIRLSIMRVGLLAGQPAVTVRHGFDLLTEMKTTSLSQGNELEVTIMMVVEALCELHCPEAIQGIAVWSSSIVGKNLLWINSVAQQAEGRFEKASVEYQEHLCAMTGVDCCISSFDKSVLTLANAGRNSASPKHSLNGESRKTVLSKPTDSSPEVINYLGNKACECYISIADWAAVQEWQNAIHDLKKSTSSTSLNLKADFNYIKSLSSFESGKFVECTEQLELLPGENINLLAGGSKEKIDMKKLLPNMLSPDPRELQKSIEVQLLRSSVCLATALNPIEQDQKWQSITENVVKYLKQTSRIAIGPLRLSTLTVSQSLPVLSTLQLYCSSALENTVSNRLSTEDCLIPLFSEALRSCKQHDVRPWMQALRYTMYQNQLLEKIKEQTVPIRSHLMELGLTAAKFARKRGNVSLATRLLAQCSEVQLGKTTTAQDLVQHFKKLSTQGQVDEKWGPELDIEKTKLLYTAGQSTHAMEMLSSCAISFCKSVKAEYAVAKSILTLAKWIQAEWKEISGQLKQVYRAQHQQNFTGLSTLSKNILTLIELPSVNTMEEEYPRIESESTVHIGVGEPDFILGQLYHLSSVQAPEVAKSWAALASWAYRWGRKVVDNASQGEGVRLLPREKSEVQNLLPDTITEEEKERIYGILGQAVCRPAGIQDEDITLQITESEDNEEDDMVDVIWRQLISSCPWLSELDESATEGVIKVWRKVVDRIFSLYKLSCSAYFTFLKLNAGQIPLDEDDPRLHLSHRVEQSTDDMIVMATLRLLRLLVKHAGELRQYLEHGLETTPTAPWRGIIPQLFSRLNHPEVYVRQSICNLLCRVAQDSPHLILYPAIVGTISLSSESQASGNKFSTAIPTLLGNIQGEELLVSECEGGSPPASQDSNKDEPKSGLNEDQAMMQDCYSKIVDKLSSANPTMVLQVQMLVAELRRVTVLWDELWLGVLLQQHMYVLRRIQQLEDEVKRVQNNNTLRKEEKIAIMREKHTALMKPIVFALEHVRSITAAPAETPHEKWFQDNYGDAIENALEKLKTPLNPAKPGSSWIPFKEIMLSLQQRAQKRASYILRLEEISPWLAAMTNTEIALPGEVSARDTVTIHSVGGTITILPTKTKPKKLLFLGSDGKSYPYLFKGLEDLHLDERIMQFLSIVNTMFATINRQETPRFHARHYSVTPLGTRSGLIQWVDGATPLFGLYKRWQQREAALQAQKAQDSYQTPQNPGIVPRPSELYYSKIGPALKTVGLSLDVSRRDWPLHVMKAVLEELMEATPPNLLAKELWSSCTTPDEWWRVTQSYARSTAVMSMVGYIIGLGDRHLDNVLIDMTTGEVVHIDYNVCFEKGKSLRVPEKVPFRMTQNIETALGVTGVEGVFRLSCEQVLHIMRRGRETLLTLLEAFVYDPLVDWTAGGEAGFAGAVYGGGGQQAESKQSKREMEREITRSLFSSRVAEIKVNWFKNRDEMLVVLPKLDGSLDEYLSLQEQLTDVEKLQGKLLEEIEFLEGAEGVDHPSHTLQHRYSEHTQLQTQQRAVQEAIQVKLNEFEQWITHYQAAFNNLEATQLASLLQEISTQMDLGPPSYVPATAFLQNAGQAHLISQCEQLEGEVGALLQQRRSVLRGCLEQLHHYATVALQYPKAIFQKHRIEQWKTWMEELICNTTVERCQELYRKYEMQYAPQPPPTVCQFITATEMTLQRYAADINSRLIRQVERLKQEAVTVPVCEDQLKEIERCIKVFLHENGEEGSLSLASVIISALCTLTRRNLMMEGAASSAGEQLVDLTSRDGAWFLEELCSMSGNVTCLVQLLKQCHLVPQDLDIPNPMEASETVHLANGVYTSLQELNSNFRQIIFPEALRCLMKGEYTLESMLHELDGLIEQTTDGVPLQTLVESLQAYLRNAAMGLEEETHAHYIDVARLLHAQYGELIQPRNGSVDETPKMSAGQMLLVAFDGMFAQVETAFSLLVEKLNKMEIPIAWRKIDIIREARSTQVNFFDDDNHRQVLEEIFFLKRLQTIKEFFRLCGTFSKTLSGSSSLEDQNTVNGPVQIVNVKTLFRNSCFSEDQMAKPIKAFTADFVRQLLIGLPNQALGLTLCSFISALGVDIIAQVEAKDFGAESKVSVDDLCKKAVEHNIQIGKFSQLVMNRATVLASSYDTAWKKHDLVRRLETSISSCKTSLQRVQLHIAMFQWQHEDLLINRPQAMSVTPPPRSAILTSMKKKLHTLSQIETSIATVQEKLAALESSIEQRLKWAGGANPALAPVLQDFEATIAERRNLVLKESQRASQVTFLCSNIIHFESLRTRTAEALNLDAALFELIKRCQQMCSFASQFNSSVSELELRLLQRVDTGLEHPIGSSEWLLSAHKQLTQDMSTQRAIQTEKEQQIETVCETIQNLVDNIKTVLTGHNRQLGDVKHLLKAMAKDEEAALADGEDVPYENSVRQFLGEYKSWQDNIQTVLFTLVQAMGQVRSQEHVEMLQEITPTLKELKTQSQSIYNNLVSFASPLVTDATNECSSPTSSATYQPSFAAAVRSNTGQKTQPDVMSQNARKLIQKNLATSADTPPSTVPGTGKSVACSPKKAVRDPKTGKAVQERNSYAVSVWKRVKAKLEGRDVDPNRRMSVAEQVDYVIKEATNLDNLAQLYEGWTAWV
# Proto-oncogene tyrosine-protein kinase receptor Ret (Homo sapiens), P07949 [V804L], sequence (P07949 whole entry V804L): as the sequence (P07949 whole entry) above, with V804L counted along it
smiles,measurement,setting,value
COc1cc(N(C)c2ccnc3ccc(C(F)(F)F)cc23)cc(OC)c1OC,% binding,[1],91%
C=CC(=O)Nc1cccc(C(=O)Nc2ccc(Nc3cc(-c4[nH]c(SC)nc4C)ccn3)cc2)c1,% of control,[2]; at 1 µM,90%
same,% of control,[2]; at 5 µM,67%
Nc1cnc(N2CCc3cc(S(=O)(=O)Nc4c(F)cc(Cl)cc4F)cc(N4CCCC4=O)c32)nc1 [TP-020n],% of control,[3],89%
C=CC(=O)Nc1ccc(C(=O)Nc2[nH]nc3c2CN(C(=O)N[C@H](CN(C)C)c2ccccc2)C3(C)C)cc1,% of engagement,[4],-6.6%
CC(=O)Nc1cccc(-n2c(=O)n(C3CC3)c(=O)c3c(Nc4ccc(I)cc4F)n(C)c(=O)c(C)c32)c1,% of control,[5],91%
Cn1cc(-n2cnc3c(NCc4nc5cc(Cl)c(Cl)cc5[nH]4)nc(N4CCOCC4)nc32)cn1,% of control,[6],-3.31%
Cc1cc(C)cc([C@@H]2c3cc(C)ccc3NC(=O)CN2C(=O)c2ccc(Br)s2)c1,% of inhibition,[7],1%
COCC(=O)NC/C=C/c1ccc2ncnc(Nc3ccc(Oc4ccc(C)nc4)c(C)c3)c2c1 [CP-724714],% of control,[8],77%
same,% of control,[9],87%
same,% of control,[10],100%
O[C@H]1CC[C@H](Nc2ncc3nc(Nc4c(F)cc(F)cc4F)n([C@H]4CCOC4)c3n2)CC1,% of control,[11],100%
